These results are taken from ChEMBL document CHEMBL1135252, “Design and synthesis of antiangiogenic/heparin-binding arginine dendrimer mimicking the surface of endostatin” (Bioorg Med Chem Lett, 2002).

The species named for assay [1] is Gallus gallus. The assay can be described thus: Antiangiogenic activity in chicken embryo chorioallantoic membrane assay, at 10 ug/CAM was determined. The format is functional, tissue-based.
For assay [2], the species on record is Gallus gallus. The assay can be described thus: Antiangiogenic activity in chicken embryo chorioallantoic membrane assay, at 100 ug/CAM was determined. Format: functional, tissue-based.
For assay [3], the species on record is Rattus norvegicus. The assay can be described thus: Salt concentration required for release from the heparin-agarose column was evaluated to determine the heparin- binding activity to inhibit the growth of rat lung endothelial(RLE) cells.

The inhibition is the change of the read-out against control, counted positive when it falls. Low values mean a weak effect, high ones a strong effect. Consider `N=C(N)NCCCC(N)C(=O)NC(CCCNC(=N)N)C(=O)NCCCCC(NC(=O)C(CCCNC(=N)N)NC(=O)C(N)CCCNC(=N)N)C(=O)NCCCCC(NC(=O)C(CCCCNC(=O)C(CCCNC(=N)N)NC(=O)C(N)CCCNC(=N)N)NC(=O)C(CCCNC(=N)N)NC(=O)C(N)CCCNC(=N)N)C(=O)NCCCC(NC(=O)NCC(=O)O)NC(=O)C(CCCCNC(=O)C(CCCCNC(=O)C(CCCNC(=N)N)NC(=O)C(N)CCCNC(=N)N)NC(=O)C(CCCNC(=N)N)NC(=O)C(N)CCCNC(=N)N)NC(=O)C(CCCCNC(=O)C(CCCNC(=N)N)NC(=O)C(N)CCCNC(=N)N)NC(=O)C(CCCNC(=N)N)NC(=O)C(N)CCCNC(=N)N` (stereo not drawn), for which the inhibition in assay [1] stood at 45.4%; in assay [2] it was 70%. Moreover, the NaCl concentration in assay [3] was found to be 1.2 M.
